Laboratory results taken from patent US11718628B2, “SREBP inhibitors comprising a 6-membered central ring” (Capulus Therapeutics, LLC, priority 2018, dated 2023).
Values after ≈ are worked out from the molar mass of the structure shown.

Columns and labels:
Kinetic solubility = type: physicochemical; conditions: aqueous buffer, kinetic from dmso stock, pH 7.4 buffer, room temperature, 1.0% DMSO, read-out: I: kinetic solubility class
Method: Kinetic Solubility Procedure: A 10 mM stock solution of a compound was prepared in DMSO, then 4 μL of the stock was added to a deep well plate containing 396 μL of pH 7.4 buffer. The sample plate was vortexed at 800 rpm for 24 h on thermomixer at room temperature. The plate was sealed well during the incubation process. The DMSO content in the sample was 1.0%. The concentration of the evaluated compound in the final incubation was 100 μM. At the end of the incubation period, the sample plate was centrifuged at 4000 rpm for 10 min and analyzed in LC-UV against a calibration curve (CC). Values <10 μg/mL=Low; 10 to 60 μg/mL=Medium; >60 μg/mL=High.

[1] = Half-life in mouse liver microsomes; type: in vitro ADME; conditions: mouse, liver microsomes, read-out: H: half-life of mouse liver microsomes
Method: (§1) Half-life Human Microsomes: Compounds were evaluated for stability in human liver microsomes. A 10 mM stock solution of the compound being evaluated was prepared in DMSO and diluted with water:acetonitrile (1:1) to a concentration of 1 mM. A working concentration of 100 μM was prepared by further dilution with water:acetonitrile (1:1). To make the preincubation mixture, 2.5 μL of the diluted compound was combined with 75 μL of human liver microsomes at 3.33 mg/mL, and 85 μL of 100 mM potassium phosphate buffer, and this mixture was pre-incubated for 10 min at 37° C. To make the 60 minute mixture without cofactor, 32.5 μL of the preincubation mixture was combined with 17.5 μL of 100 mM potassium phosphate buffer and incubated for 60 min at 37° C. To make the 0 min sample with cofactor (NADPH), 16.25 μL of the preincubation mixture was combined with 200 μL of acetonitrile containing internal standard and 8.75 μL of cofactor (NADPH). To make the incubation mixture, 62 μL of cofactor (2.85 mM) was combined with the remaining incubation mixture, and incubated for 60 min at 37° C. To prepare the sample mixture to be evaluated, 25 μL incubation mixture was combined with 200 μL of acetonitrile containing internal standard and vortexed for 5 min at 1200 rpm, then centrifuged for 10 min at 4000 rpm. The supernatant was diluted 2 fold with water and injected on LC-MS/MS. The sample mixture was evaluated by LC-MS/MS using 10 mM ammonium acetate with 0.1% FA as the aqueous mobile phase, and methanol as the organic mobile phase.
Half-life Mouse Microsomes: Compounds were evaluated in mouse liver microsomes following a similar procedure as described above for human liver microsomes. A similar procedure could be used to evaluate compounds in rat liver microsomes.

[2] = Half-life in human liver microsomes; type: in vitro ADME; conditions: human, liver microsomes, NADPH, 37° C., read-out: G: half-life human liver microsomes
Method: as §1

Row | SMILES | solubility kinetic at 24 h (Kinetic solubility) [µg/mL] | half-life at 1 µM [1] [min] | half-life at 1 µM [2] [min]
1 | CC1(c2cc(-c3cncc(-c4ccc(C(=O)N5CCC(O)CC5)cc4Cl)c3)ccn2)OCCO1 | 10 to 60 (≈ 20.8 to 125 µM) | 101 | 9.74
2 | CC(C)(C)c1cc(-c2cc(-c3ccc(C(=O)N4CCC(O)CC4)cc3Cl)cc3ncccc23)ccn1 | < 10 | 10.2 | 19
3 | CC(C)(C)c1cc(-c2cc(-c3ccc(C(=O)N4CCC(O)CC4)cc3Cl)c3cccnc3c2)ccn1 | < 10 | 19.3 | 2.07
4 | Cc1c(-c2ccnc(C(C)(C)C)c2)cncc1-c1ccc(C(=O)N2CCC(O)CC2)cc1Cl | 10 to 60 (≈ 21.6 to 129 µM) | 19.5 | 3.21
5 | CN(C)c1cc(-c2ccnc(C(C)(C)C)c2)cc(-c2ccc(C(=O)N3CCC(O)CC3)cc2Cl)c1 | < 10 | 13.6 | 20.7
6 | CC(C)(C)c1cc(-c2cc(C#N)cc(-c3ccc(C(=O)N4CCC(O)CC4)cc3Cl)c2)ccn1 | < 10 | 119 | 16.1
7 | CC(C)(C)c1cc(-c2cc(F)cc(-c3ccc(C(=O)N4CCC(O)CC4)cc3Cl)c2)ccn1 | < 10 | 13.6 | 74.6
8 | O=C(c1ccc(-c2cncc(-c3ccnc4c3CCC4)c2)c(Cl)c1)N1CCC(O)CC1 | 10 to 60 (≈ 23 to 138 µM) | 27.4 | 9.79
9 | CC(C)(C)c1cc(-c2cncc(-c3ccc(NC(=O)OC4CCC(O)CC4)cc3Cl)c2)ccn1 (stereo not drawn) | < 10 | 120 | 31.3
10 | CC(C)(C)c1cc(-c2cncc(-c3ccc(C(=O)N4CCC(O)CC4)cc3)c2F)ccn1 [drawing 321] | 10 to 60 (≈ 23.1 to 138 µM) | 82.6 | 126
11 | Cc1cc(C(=O)N2CCC(O)CC2)ccc1-c1cncc(-c2ccnc(C(C)(C)C)c2)c1 [drawing 337] | 10 to 60 (≈ 23.3 to 140 µM) | 213 | 13.9
12 | CC(C)(C)c1cc(-c2cncc(-c3ccc(NS(C)(=O)=O)cc3Cl)c2)ccn1 [drawing 346] | < 10 | 59.6 | 19.8
13 | CC(C)(O)c1cc(-c2cncc(-c3ccc(C(=O)N4CCC(O)CC4)cc3Cl)c2)ccn1 [drawing 356] | 10 to 60 (≈ 22.1 to 133 µM) | 2920 | 541
14 | CC1(O)CCCN(C(=O)c2ccc(-c3cncc(-c4ccnc(C(C)(C)C)c4)c3)c(Cl)c2)C1 (stereo not drawn) [drawing 366] | 10 to 60 (≈ 21.6 to 129 µM) | 11.4 | 5.81
15 | CC1(O)CCN(C(=O)c2ccc(-c3cncc(-c4ccnc(C(C)(C)C)c4)c3)c(Cl)c2)CC1 [drawing 369] | 10 to 60 (≈ 21.6 to 129 µM) | 30.3 | 13
16 | CC(C)OC(=O)Nc1ccc(-c2cncc(-c3ccnc(C4OCCO4)c3)c2)c(Cl)c1 [drawing 371] | < 10 | 19.2 | 13.5
17 | CC(C)OC(=O)Nc1ccc(-c2cncc(-c3ccnc(C(C)(C)C)c3)c2)c(Cl)c1 [drawing 372] | < 10 | 222 | 69.9
18 | COC1CCCN(C(=O)c2ccc(-c3cncc(-c4ccnc(C(C)(C)C)c4)c3)c(Cl)c2)C1 (stereo not drawn) [drawing 375] | 10 to 60 (≈ 21.6 to 129 µM) | 8.98 | 2.02
19 | CC(C)(C)c1cc(-c2cc(-c3ccc(C(=O)N4CCC(O)CC4)cc3Cl)ncn2)ccn1 [drawing 376] | 10 to 60 (≈ 22.2 to 133 µM) | 68.2 | 20.3
20 | CC(C)(C)c1cc(-c2cccc(-c3ccc(C(=O)N4CCC(O)CC4)cc3Cl)c2)ccn1 [drawing 377] | < 10 | 89.9 | 46.5
21 | CC(C)(C)c1cc(-c2cncc(-c3ccc(C(=O)N4CCC(O)CC4)cc3Cl)c2)ccn1 [drawing 378] | 10 to 60 (≈ 22.2 to 133 µM) | 80.1 | 61.2
